Legend:
[1] = tested on: HuH-7 hepatocellular carcinoma cells; assay: Methylene blue staining proliferation assay (MBS); type: cell-based; details: Homo sapiens, 72 hours after compound addition, read-out: HUH7 proliferation (nM) MBS
Protocol: Methylene blue staining proliferation assay (MBS): The effect of the compound on cell proliferation is assessed using HuH-7 hepatocellular carcinoma cells obtained from the Japanese Collection of Research Bioresources Cell Bank (Cat# JCRB0403) and cultured in the vendor-recommended medium (DMEM high glucose (Amimed Cat#1-26F01-I), 10% foetal calf serum (Invitrogen Cat#16140-071), 1 mM sodium pyruvate (Amimed Cat#5-60F00-H), 1× Penicillin/Streptomycin (Amimed Cat#4-01F00-H)) at 37° C. in a humidified 5% CO2 incubator. Specifically, 5000 cells/well were seeded in 96-well tissue culture plates (TPP Cat#92696) in a total media volume of 100 μl/well and increasing compound dilutions or DMSO were added 24 hours thereafter in triplicates. 72 hours after compound addition, cells were fixed by adding 25 μL/well of 20% glutaraldehyde (Sigma Aldrich Cat# G400-4) and incubated for 10 minutes at room temperature. Cells were washed three times with H2O, 200 μL/well and stained with 100 μL/well 0.05% methylene blue (ABCR GmbH Cat# AB117904) for 10 minutes at room temperature. Cells were washed 3 times with H2O, 200 μL/well and then lysed by adding 200 μL/well of 3% HCl (Fluka Cat#84422) for 30 minutes at room temperature with shaking. Optical density was measured at A650 nm. […]

[2] = tested on: HuH-7 hepatocellular carcinoma cells; assay: CellTiter Glo (CTG) proliferation assay; type: cell-based; details: Homo sapiens, Huh-7, 72 h; 3 days incubation; half-maximal growth inhibition; read-out: HUH7 proliferation (nM) CTG
Protocol: CellTiter Glo (CTG) assay: The functional effect of compounds on cell proliferation is assessed using HuH-7 hepatocellular carcinoma cells obtained from the Japanese Collection of Research Bioresources Cell Bank (Cat# JCRB0403) and cultured in the vendor-recommended medium (DMEM high glucose (Amimed Cat#1-26F01-I), 10% foetal calf serum (Invitrogen Cat#16140-071), 1 mM sodium pyruvate (Amimed Cat#5-60F00-H), 1× Penicillin/Streptomycin (Amimed Cat#4-01F00-H)) at 37° C. in a humidified 5% CO2 incubator. Compound-mediated suppression of cell proliferation/viability is assessed by quantification of cellular ATP levels using the CellTiter-Glo (CTG) reagent (Promega, Cat# G7573). […] Dose-response effects are assessed by 3-fold serial dilutions of the test compound, starting at 10 μM. Following incubation of the cells for 3 days at 37° C. and 5% CO2, the effect of inhibitors on cell viability is quantified following addition of 50 μl CTG and luminescence measurement (integration time: 500 ms) as per vendor manual, using a correspondingly equipped multi-mode plate reader (M200Pro, TECAN, Switzerland). For data analysis, the assay background value determined in wells containing medium, but no cells, is subtracted from all data points. […] Compound concentrations leading to half-maximal growth inhibition ([…]) are determined using standard four parameter curve fitting (XLfit 5.2., IDBS, UK).

IC50 [1]: 12 nM
IC50 [2]: 60.9 nM
SMILES: COCCNc1cc(NC(=O)N2CCCc3cc(CN4CCN(C)CC4=O)c(C=O)nc32)ncc1C#N [Example 83, N-(5-cyano-4-((2-methoxyethyl)amino)pyridin-2-yl)-7-formyl-6-((4-methyl-2-oxopiperazin-1-yl)methyl)-3,4-dihydro-1,8-naphthyridine-1(2H)-carboxamide]
